According to patent US11230543B2, “Biaryl monobactam compounds and methods of use thereof for the treatment of bacterial infections” (priority 2015, dated 2022):
Where a name gives a salt, the structure may show the parent alone.

Experiments:
[1] = system: Pseudomonas aeruginosa expressing AmpC (CL5701); assay: Antibiotic activity: growth inhibitory concentration (OD600), Pseudomonas aeruginosa CL5701; assay type: cell-based; conditions: lowest concentration inhibiting 95% of bacterial growth; in the presence of β lactamase inhibitor Relebactam 4 μg/mL; 35±2° C. for 22 hours; tested range 100 μM to 0.098 μM
Summary of the method: (§1)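 Clinical strains at ~2×10^5 CFU/mL in cation-adjusted Mueller-Hinton II broth, with relebactam at 4 μg/mL final; compounds 100 μM to 0.098 μM final. After 22 hours at 35±2° C, OD600 read; MITC95 is lowest concentration giving 95% growth inhibition.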

[2] = system: Klebsiella pneumoniae expressing KPC-1 (CL6569); assay: Antibiotic activity: growth inhibitory concentration (OD600), Klebsiella pneumoniae CL6569; assay type: cell-based; conditions: lowest concentration inhibiting 95% of bacterial growth; in the presence of β lactamase inhibitor Relebactam 4 μg/mL; 35±2° C. for 22 hours; tested range 100 μM to 0.098 μM
Summary of the method: as §1

| SMILES | PA_CL5701 MITC95 [1] [µM] | KP_CL6569 MITC95 [2] [µM] |
| --- | --- | --- |
| C[n+]1cc(-c2ccc(OC[C@](C)(O/N=C(\C(=O)N[C@@H]3C(=O)N(OS(=O)(=O)[O-])C3(C)C)c3csc(N)n3)C(=O)O)cc2F)cn1CCCN [Example 105, (S)-3-((Z)-2-((((Sn-1-(4-(1-(3-aminopropyl)-2-methyl-1H-pyrazol-2-ium-4-yl)-3-fluorophenoxy)-2-carboxypropan-2-yl)oxy)imino)-2-(2-aminothiazol-4-yl)acetamido)-2,2-dimethyl-4-oxoazetidin-1-yl sulfate] | 3.125 | 0.3906 |
| C[n+]1cc(-c2ccc(OC[C@H](O/N=C(\C(=O)N[C@@H]3C(=O)N(OS(=O)(=O)O)C3(C)C)c3csc(N)n3)C(=O)O)cc2)cn1CC(O)CN (stereo partly drawn) [Example 42, (3S)-3-((Z)-2-(((1S)-2-(4-(1-(3-amino-2-hydroxypropyl)-2-methyl-1H-pyrazol-2-ium-4-yl)phenoxy)-1-carboxyethoxy)imino)-2-(2-aminothiazol-4-yl)acetamido)-2,2-dimethyl-4-oxoazetidin-1-yl sulfate] | 3.125 | 0.3906 |
| Cc1cn(CCCN)[n+](C)c1-c1ccc(OC[C@H](O/N=C(\C(=O)N[C@@H]2C(=O)N(OS(=O)(=O)O)C2(C)C)c2csc(N)n2)C(=O)O)cc1.O=C([O-])C(F)(F)F [Example 19, 1-(3-aminopropyl)-3-(4-((S)-2-((((Z)-1-(2-aminothiazol-4-yl)-2-(((S)-2,2-dimethyl-4-oxo-1-(sulfooxy)azetidin-3-yl)amino)-2-oxo-ethylidene)amino)oxy)-2-carboxyethoxy)phenyl)-2,4-dimethyl-1H-pyrazol-2-ium 2,2,2-trifluoroacetate] | 12.5 | 0.7813 |
| CC1(C)[C@H](NC(=O)/C(=N\O[C@@H](COc2ccc(-c3ccnc(NCCCN)c3)cc2)C(=O)O)c2csc(N)n2)C(=O)N1OS(=O)(=O)O [Example 64, (S)-3-((Z)-2-(((S)-2-(4-(2-((3-aminopropyl)amino)pyridin-4-yl)phenoxy)-1-carboxyethoxy)imino)-2-(2-aminothiazol-4-yl)acetamido)-2,2-dimethyl-4-oxoazetidin-1-yl sulfate] | 12.5 | 1.563 |
| CC1(C)[C@H](NC(=O)/C(=N\O[C@@H](COc2ccc(-c3cn(CCCN)[n+](CCCN)c3)cc2)C(=O)O)c2csc(N)n2)C(=O)N1OS(=O)(=O)[O-] [Example 54, (S)-3-((Z)-2-(2-aminothiazol-4-yl)-2-(((S)-2-(4-(1,2-bis(3-aminopropyl)-1H-pyrazol-2-ium-4-yl)phenoxy)-1-carboxyethoxy)imino)acetamido)-2,2-dimethyl-4-oxoazetidin-1-yl sulfate] | 1.563 | 0.09766 |
| CC1(C)[C@H](NC(=O)/C(=N\O[C@@H](COc2ccc(-c3cn(CCCN)cn3)cc2)C(=O)O)c2csc(N)n2)C(=O)N1OS(=O)(=O)O [Example 10, (S)-3-(4-(1-(3-Aminopropyl)-1H-imidazol-4-yl)phenoxy)-2-((((Z)-1-(2-aminothiazol-4-yl)-2-(((S)-2,2-dimethyl-4-oxo-1-(sulfooxy)azetidin-3-yl)amino)-2-oxoethylidene)amino)oxy)propanoic acid] | 6.25 | 0.3906 |
| C[n+]1c(N)c(-c2ccc(OC[C@H](O/N=C(\C(=O)N[C@@H]3C(=O)N(OS(=O)(=O)[O-])C3(C)C)c3csc(N)n3)C(=O)O)cc2)cn1CCCN [Example 28, (S)-3-((Z)-2-(((S)-2-(4-(3-Amino-1-(3-aminopropyl)-2-methyl-1H-pyrazol-2-ium-4-yl)phenoxy)-1-carboxyethoxy)imino)-2-(2-aminothiazol-4-yl)acetamido)-2,2-dimethyl-4-oxoazetidin-1-yl sulfate] | 3.13 | 0.2 |
| C[n+]1nc(-c2ccc(OC[C@H](O/N=C(\C(=O)N[C@@H]3C(=O)N(OS(=O)(=O)[O-])C3(C)C)c3csc(N)n3)C(=O)O)cc2)ccc1NCCCN [Example 123, (S)-3-((Z)-2-(((S)-2-(4-(6-((3-aminopropyl)amino)-1-methylpyridazin-1-ium-3-yl)phenoxy)-1-carboxyethoxy)imino)-2-(2-aminothiazol-4-yl)acetamido)-2,2-dimethyl-4-oxoazetidin-1-yl sulfate] | 12.5 | 0.3906 |
| C[n+]1cc(NCCN)ccc1-c1ccc(OC[C@H](O/N=C(\C(=O)N[C@@H]2C(=O)N(OS(=O)(=O)[O-])C2(C)C)c2csc(N)n2)C(=O)O)cc1 [Example 72, (S)-3-((Z)-2-(((S)-2-(4-(5-((2-aminoethyl)amino)-1-methylpyridin-1-ium-2-yl)phenoxy)-1-carboxyethoxy)imino)-2-(2-aminothiazol-4-yl)acetamido)-2,2-dimethyl-4-oxoazetidin-1-yl sulfate] | 6.25 | 0.3906 |
| CC1(C)[C@H](NC(=O)/C(=N\O[C@@H](COc2ccc(-c3cn(CCCN)c(N)n3)cc2)C(=O)O)c2csc(N)n2)C(=O)N1OS(=O)(=O)O.O=C(O)C(F)(F)F [Example 31, 3-(2-amino-4-(4-((S)-2-((((Z)-1-(2-aminothiazol-4-yl)-2-(((S)-2,2-dimethyl-4-oxo-1-(sulfooxy)azetidin-3-yl)amino)-2-oxoethylidene)amino)oxy)-2-carboxyethoxy)phenyl)-1H-imidazol-1-yl)propan-1-aminium 2,2,2-trifluoroacetate] | 3.125 | 0.3906 |
| CC1(C)[C@H](NC(=O)/C(=N\O[C@@H](COc2ccc(Nc3cc[n+](CC4CNC4)cc3)nc2)C(=O)O)c2csc(N)n2)C(=O)N1OS(=O)(=O)[O-] [Example 108, (S)-3-((Z)-2-(2-aminothiazol-4-yl)-2-(((S)-2-((6-((1-(azetidin-3-ylmethyl)pyridin-1-ium-4-yl)amino)pyridin-3-yl)oxy)-1-carboxyethoxy)imino)acetamido)-2,2-dimethyl-4-oxoazetidin-1-yl sulfate] | 12.5 | 0.7813 |
| CC1(C)[C@H](NC(=O)/C(=N\OCCOc2ccc(-c3nc4c([nH]3)CNCC4)cc2)c2csc(N)n2)C(=O)N1OS(=O)(=O)O [Example 86, (S)-3-(2-(2-aminothiazol-4-yl)-2-((2-(4-(4,5,6,7-tetrahydro-3H-imidazo[4,5-c]pyridin-2-yl)phenoxy)ethoxy)imino)acetamido)-2,2-dimethyl-4-oxoazetidin-1-yl hydrogen sulfate] | 25 | 1.281 |
| Cn1c(-c2ccc(OC[C@H](O/N=C(\C(=O)N[C@@H]3C(=O)N(OS(=O)(=O)O)C3(C)C)c3csc(N)n3)C(=O)O)cc2)cn(CCCN)c1=NCCN (stereo in doubt) [Example 57, (S)-3-(4-((Z)-2-((2-aminoethyl)imino)-1-(3-aminopropyl)-3-methyl-2,3-dihydro-1H-imidazol-4-yl)phenoxy)-2-((((Z)-1-(2-aminothiazol-4-yl)-2-(((S)-2,2-dimethyl-4-oxo-1-(sulfooxy)azetidin-3-yl)amino)-2-oxoethylidene)amino)oxy)propanoic acid] | 3.125 | 0.1953 |
